Experimental data taken from US9605002B2, “5,5-heteroaromatic anti-infective compounds” (priority 2012, dated 2017).
In brackets after ≈: the same amount, converted by molar mass. Several values for one entry are separate records, joined by “and”; a condition that tells them apart may be missing. Equal values may be shown once.

Tests used:
[1] = test system: M. tuberculosis (Mtb) H37Rv; assay: Microplate Alamar Blue Assay (MABA), GAS media, replicating Mtb; format: cell-based, Mycobacterium tuberculosis; conditions: for MIC90: Mycobacterium tuberculosis, GAS (glycerol-alanine-salt) media, replicating H37Rv, read-out: GAS media: replicating H37Rv Mtb: MIC 90
[2] = test system: M. tuberculosis (Mtb) H37Rv; assay: Microplate Alamar Blue Assay (MABA), 7H12 media, replicating Mtb; format: cell-based; conditions: Mycobacterium tuberculosis, 7H12 media (no glycerol), read-out: 7H12 media: Replicating H37Rv Mtb: MIC 90
[3] = test system: Drug sensitive Mtb clinical strain #1; assay: MIC against clinical Mtb strains; format: cell-based; conditions: Mycobacterium tuberculosis, 7H9/glucose/glycerol/BSA/0.05% Tween 80, average of three
[4] = test system: Drug sensitive Mtb clinical strain #2; assay: MIC against clinical Mtb strains; format: cell-based; conditions: Mycobacterium tuberculosis, 7H9/glucose/glycerol/BSA/0.05% Tween 80, average of three
[5] = test system: VERO kidney epithelial cells; assay: VERO toxicity assessment; conditions: for IC50: Chlorocebus sabaeus, Vero, read-out: VERO: IC50

| Compound | MIC90 [1] | in vitro activity against H37Rv TB ([1]; statement in words, medium not stated) | MIC90 [2] | MIC90 [3] | MIC90 [4] | IC50 [5] | therapeutic window ([5]; statement in words) |
| --- | --- | --- | --- | --- | --- | --- | --- |
| Cc1cn2c(C(=O)NCc3ccc(Oc4ccc(F)cc4)cc3)c(C)nc2s1 [ND-010081] | < 2 µM | comparable to the current clinical candidates | < 2 µM | < 0.01 µM and < 0.025 µg/mL | < 0.025 µg/mL and < 0.01 µM | 2 to 10 µM | sufficient therapeutic window for in vivo treatment |
| Cc1cn2c(C(=O)NCc3ccc(C(C)(C)C)cc3)c(C)nc2s1 [ND-020031] | < 2 µM | – | < 2 µM | – | – | < 32 µM | – |
| Cc1cn2c(C(=O)NCc3ccc4c(c3)OCC4)c(C)nc2s1 [ND-020018] | < 2 µM | – | < 2 µM | – | – | < 32 µM | – |
| CCc1nc2sc(C)cn2c1C(=O)NCc1ccc(N2CCC(c3ccc(F)cc3)CC2)cc1 [ND-020046] | < 2 µM | – | < 2 µM | – | – | 10 to 20 µM | – |
| COc1ccc(COC(=O)c2c(C)nc3sc(C)cn23)cc1 [ND-010050] | 2 to 10 µM | – | 10 to 20 µM (≈ 3.16 to 6.33 µg/mL) | – | – | < 32 µM | – |
| Cc1cn2c(C(=O)NCc3ccc(N4CC(C)OC(C)C4)cc3)c(C)nc2s1 (stereo not drawn) [ND-020074] | < 2 µM | – | < 2 µM | – | – | 20 to 32 µM | – |
| Cc1nc2sc(Cl)cn2c1C(=O)NCc1ccc(N2CCOCC2)c(F)c1 [ND-020039] | < 2 µM | – | < 2 µM | – | – | < 32 µM | – |
| Cc1cn2c(C(=O)NCc3ccc(N4CCC(=O)CC4)cc3)c(C)nc2s1 [ND-020070] | < 2 µM | – | 2 to 10 µM (≈ 0.765 to 3.82 µg/mL) | – | – | 20 to 32 µM | – |
| CCc1nc2sc(C)cn2c1C(=O)NCc1ccc(Oc2ccc(C(F)(F)F)cc2)cc1 [ND-020054] | < 2 µM | – | < 2 µM | – | – | 20 to 32 µM | – |
| Cc1cn2c(C(=O)NCc3ccccc3Cl)c(C)nc2s1 [ND-020001] | < 2 µM | – | < 2 µM | – | – | < 32 µM | – |
| Cc1cn2c(C(=O)NCc3ccc4ocnc4c3)c(C)nc2s1 [ND-020049] | < 2 µM | – | < 2 µM | – | – | < 32 µM | – |
| Cc1nc2sc(C(F)(F)F)cn2c1C(=O)NCc1ccc(Cl)cc1 [ND-020015] | < 2 µM | – | 2 to 10 µM (≈ 0.748 to 3.74 µg/mL) | – | – | < 32 µM | – |
| Cc1cn2c(C(=O)NCc3ccc(N4CCCC4)cc3)c(C)nc2s1 [ND-020071] | < 2 µM | – | < 2 µM | – | – | 20 to 32 µM | – |
| CCc1nc2sc(C)cn2c1C(=O)NCc1ccc2nc(-c3ccc(F)cc3)oc2c1 [ND-020067] | < 2 µM | – | 2 to 10 µM (≈ 0.869 to 4.34 µg/mL) | – | – | 20 to 32 µM | – |
| COC(=O)c1c(C)nc2sc(C)c(C)n12 [ND-009744] | < 32 µM | – | < 32 µM | – | – | < 32 µM | – |
| Cc1nc2sc(Cl)cn2c1C(=O)Nc1ccc(Oc2ccc(C(F)(F)F)cc2)cc1 [ND-020041] | < 2 µM | – | < 2 µM | – | – | < 32 µM | – |
| Cc1cn2c(C(=O)NCc3cccc(Cl)c3)c(C(F)(F)F)nc2s1 [ND-020014] | < 2 µM | – | 2 to 10 µM (≈ 0.748 to 3.74 µg/mL) | – | – | < 32 µM | – |
| Cc1cn2c(C(=O)NCc3cccc(N4CCC(=O)CC4)c3)c(C)nc2s1 [ND-020072] | < 2 µM | – | < 2 µM | – | – | < 32 µM | – |
| Cc1cn2c(C(=O)NCc3ccc(N4CCOCC4)cc3)c(C)nc2s1 [ND-020033] | < 2 µM | – | 2 to 10 µM (≈ 0.741 to 3.7 µg/mL) | – | – | 20 to 32 µM | – |
| CCc1nc2sc(Cl)cn2c1C(=O)NCc1ccc(N(C)C)cc1 [ND-020023] | < 2 µM | – | < 2 µM | – | – | < 32 µM | – |
| Cc1nn2c(C(=O)NCc3ccc(Oc4ccc(F)cc4)cc3)c(C)nc2o1 [ND-020051] | 2 to 10 µM | – | 2 to 10 µM (≈ 0.761 to 3.8 µg/mL) | – | – | 20 to 32 µM | – |
| Cc1cn2c(C(=O)NCc3ccc(N(C)C)cc3)c(C(F)(F)F)nc2s1 [ND-020025] | < 2 µM | – | 2 to 10 µM (≈ 0.765 to 3.82 µg/mL) | – | – | < 32 µM | – |
| Cc1cn2c(C(=O)NCc3cccc(N(C)C)c3)c(C)nc2s1 [ND-020019] | < 2 µM | – | < 2 µM | – | – | < 32 µM | – |
| Cc1cn2c(C(=O)NCc3ccc(F)c(N4CCOCC4)c3)c(C)nc2s1 [ND-020076] | < 2 µM | – | < 2 µM | – | – | < 32 µM | – |
| CCc1nc2sc(C)cn2c1C(=O)NCc1ccc(N2CCOCC2)c(F)c1 [ND-020037] | < 2 µM | – | 2 to 10 µM (≈ 0.805 to 4.02 µg/mL) | – | – | < 32 µM | – |
| Cc1cn2c(C(=O)Nc3ccc(-c4ccc(C(F)(F)F)cc4)nc3)c(C)nc2s1 [ND-020044] | 2 to 10 µM | – | 2 to 10 µM (≈ 0.833 to 4.16 µg/mL) | – | – | < 32 µM | – |
| Cc1cn2c(C(=O)NCc3cccc(N4CCCC4)c3)c(C)nc2s1 [ND-020073] | < 2 µM | – | < 2 µM | – | – | < 32 µM | – |
| O=[N+]([O-])c1cn2c(n1)OC[C@@H](OCc1ccc(OC(F)(F)F)cc1)C2 [PA-824, reference compound] | – | – | – | 0.45 µM to 0.86 µM and 0.16 µg/mL to 0.31 µg/mL | > 13.9 µM and > 5 µg/mL | – | – |
| CCOc1cccc(CNC(=O)c2c(C)nc3sc(C)cn23)c1 [ND-020029] | < 2 µM | – | < 2 µM | – | – | < 32 µM | – |
